Data on 9 molecules can be found in ChEMBL document CHEMBL3352421, “Development of a new benzophenone-diketopiperazine-type potent antimicrotubule agent possessing a 2-pyridine structure” (ACS Med Chem Lett, 2014).

Test [1] has as its system HeLa. Briefly: Induction of multipolar spindle formation in human HeLa cells at 20 to 30 nM by DAPI staining. The test is classed as functional, cell-based.
The test system of test [2] is HeLa. Briefly: Inhibition of mitotic spindle formation in human HeLa cells at 7 and 30 nM by DAPI staining.
For test [3], the system named is A549. Briefly: Cytotoxicity against human A549 cells after 48 hrs by WST8 assay. In kind it is functional, cell-based. The following applies: A549, 48 h. (In general: Tetrazolium dyes change colour on reduction, which living cells bring about.)
Test [4] relates to HeLa. The test can be described thus: Cytotoxicity against human HeLa cells after 48 hrs by WST8 assay. The test is classed as functional, cell-based.
For test [5], the target named is T1, Tubulin (Sus scrofa, UniProt P02554+P02550). Briefly: Inhibition of porcine tubulin polymerization by spectrophotometry. The test is classed as protein assay.
The target of test [6] is T1, Tubulin. The test can be described thus: Binding affinity to porcine tubulin incubated for 1 hr by spectrofluorometry. In kind it is protein assay.
The test system of test [7] is HT-29. Briefly: Cytotoxicity against human HT-29 cells after 48 hrs by XTT/PMS assay. The test is classed as functional, cell-based. Particulars: HT-29, 48 h.
Test [8] relates to HT-29. Briefly: Selectivity index, ratio of IC50 for human NHSF46 cells to IC50 for human HT-29 cells. In kind it is functional.
In test [9] the test system is A549. The test can be described thus: Potency index, ratio of IC50 for Plinabulin to IC50 for test compound against human A549 cells after 48 hrs by WST8 assay. The test is classed as functional.
Test [10] in a line: Cytotoxicity against human NHSF46 cells after 48 hrs by XTT/PMS assay. The test is classed as cell-based. The following applies: NHSF46, 48 h.
In test [11] the test system is HeLa. Briefly: Induction of multipolar spindle formation in human HeLa cells at 7 nM by DAPI staining. The test is classed as functional, cell-based.
The subject of test [12] is HT-29. The test can be described thus: Selectivity index, ratio of IC50 for human PMNC cells to IC50 for human HT-29 cells. In kind it is functional.
The nature of test [13]: Cytotoxicity against human PMNC cells after 48 hrs by WST1 assay. The test is classed as functional, cell-based.
Test [14] has as its system HeLa. Briefly: Potency index, ratio of IC50 for Plinabulin to IC50 for test compound against human HeLa cells after 48 hrs by WST8 assay. In kind it is functional.

Each structure is given as a SMILES string. Activity calls are given as the source filed them. No cut-off for these calls is given here. Bounds are passed on as bounds.

The IC50 is the concentration that gives 50% inhibition. Read a high IC50 as a need for much substance. For orientation: Kd means a measure of binding affinity in units of concentration. A higher Kd goes with lower affinity.

For `CC(C)(C)c1[nH]cnc1/C=c1\[nH]c(=O)/c(=C/c2ccccc2)[nH]c1=O` [PLINABULIN], the outcome in the test on HeLa [1] was Active. Moreover, the inhibition result in the test with HeLa [2] was “Active”. For the same molecule, the IC50 was 35.7 nM with A549 [3], 20.6 nM in the test on HeLa [4] and 1800 nM on Tubulin [5]. The molecule further showed a Kd on Tubulin [6] of 1000 nM.
For `O=C(c1ccccc1)c1cccc(/C=c2\[nH]c(=O)/c(=C/c3ccccc3)[nH]c2=O)c1`, 94.3 nM corresponded to half-maximal inhibition in the test with HT-29 [7] (IC50).
`Cc1[nH]cnc1/C=c1\[nH]c(=O)/c(=C/c2cccc(C(=O)c3ccccc3)c2)[nH]c1=O`: in the test on HT-29 [7], the IC50 amounted to 15 nM.
Still for that read-out and setting: under `O=C(c1ccccc1)c1cccc(/C=c2\[nH]c(=O)/c(=C/c3ncccn3)[nH]c2=O)c1` stands 75.3 nM; under `CC(=O)N1CC(=O)N/C(=C\c2cccc(C(=O)c3ccccc3)c2)C1=O`, 8800 nM.
For `O=C(c1ccccc1)c1cccc(/C=c2\[nH]c(=O)/c(=C/c3ccccn3)[nH]c2=O)c1`, the “Ratio IC50” value in the test with HT-29 [8] worked out at 10; in the test with A549 [9] it was 2.5; in the test with HT-29 [12], 10; with HeLa [14] it was 3.8. Besides, the IC50 in test [10] was found to be 77 nM; in the test with A549 [3] it was 14.2 nM; in the test on HT-29 [7] it was 7 nM; with HeLa [4], 5.4 nM; against Tubulin [5], 1200 nM; in test [13], 481 nM. Besides, the inhibition entry with HeLa [2] was “Active”. Moreover, the outcome in the test with HeLa [11] was Active. The dissociation constant Kd on Tubulin [6] was found to be 1300 nM.
In the test on HT-29 [7], `O=C(c1ccccc1)c1cccc(/C=c2\[nH]c(=O)/c(=C/c3ccncc3)[nH]c2=O)c1` returned a half-maximal inhibitory concentration (IC50) of more than 1000 nM.
On the same count and under the same terms, under `O=C1CNC(=O)/C(=C/c2cccc(C(=O)c3ccccc3)c2)N1` stands more than 20000 nM; under `O=C(c1ccccc1)c1cccc(/C=c2\[nH]c(=O)/c(=C/c3cccnc3)[nH]c2=O)c1`, more than 1000 nM.
